Experimental data as given in paper PMC9403976, “Elucidating the path to Plasmodium prolyl-tRNA synthetase inhibitors that overcome halofuginone resistance” (Nature Communications, 2022).
Several values for one entry are separate records, joined by “and”; a condition that tells them apart may be missing. Identical values can stand only once. Like-named read-outs stand apart in the source and are kept apart here.

Experiments:
[1] = tested on: P. falciparum Dd2-2D4 NCP26 selections S1-3; assay: ABS growth assay on bulk populations and clones from NCP26 resistance selections S1-3; format: cell-based, Plasmodium falciparum
Procedure: In short, P. falciparum erythrocytic-stage parasites at 1% parasitemia and 1% hematocrit in RPMI + 0.5% Albumax were seeded at 40 μL/well in 384-well plates with test compounds in triplicate, dose-response format with 10 μM dihydroartemisinin as a kill-control and blank (no compound) wells as a growth-control. […] After 72 h, growth was quantified by measuring fluorescence (Molecular Devices SpectraMax iD5) following SYBR Green 1 staining. Data were analyzed in Excel and plotted in PRISM (V. 8.4.3–9.1.0, GraphPad).
This cycle was repeated for ~50 generations (~100 days), corresponding to 5–6 cycles of drug pressure.
Clonal parasites were isolated from each selection flask by limiting dilution of ring stage parasites in 96-well plates to an average of 0.8 and 0.2 parasites per well.

[2] = biological target: T1, PfcProRS (Plasmodium falciparum, UniProt Q8I5R7); format: binding; settings: for dose-response signal (normalized), SI Fig 8: single replicates, listed as NCP26 (3)
T1 construct: made in house; host or cells: E. coli SoluBL-21
T1 sequence (Q8I5R7 249-746): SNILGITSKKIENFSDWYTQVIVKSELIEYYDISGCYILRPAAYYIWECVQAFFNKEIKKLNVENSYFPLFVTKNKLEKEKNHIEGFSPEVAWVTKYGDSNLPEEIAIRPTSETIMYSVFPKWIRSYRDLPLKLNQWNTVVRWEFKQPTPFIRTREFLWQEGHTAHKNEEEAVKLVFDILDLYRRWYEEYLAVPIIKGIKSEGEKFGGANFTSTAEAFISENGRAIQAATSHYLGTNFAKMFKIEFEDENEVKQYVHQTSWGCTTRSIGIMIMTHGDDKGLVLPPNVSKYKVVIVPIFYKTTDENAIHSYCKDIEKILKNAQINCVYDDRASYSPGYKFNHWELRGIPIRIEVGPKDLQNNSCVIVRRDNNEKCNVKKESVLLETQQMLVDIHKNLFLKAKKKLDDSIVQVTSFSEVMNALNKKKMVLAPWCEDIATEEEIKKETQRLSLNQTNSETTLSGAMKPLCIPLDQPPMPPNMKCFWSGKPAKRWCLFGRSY

[3] = tested on: P. falciparum Dd2-2D4; assay: NCP26 resistance selection under intermittent drug pressure; format: cell-based, Plasmodium falciparum; settings: 10^9 parasites
Procedure: In short, parasites were treated with 4x EC50 NCP26 until no parasites were detected by giemsa staining microscopy. […] This cycle was repeated for ~50 generations (~100 days), corresponding to 5–6 cycles of drug pressure.

[4] = biological target: HsProRS (Homo sapiens, UniProt P07814); assay: TR-FRET ligand displacement assay with tracer MAT379 (CoraFluor-1-Halo and anti-His6 antibody formats); format: binding; design: made in house; host or cells: E. coli SoluBL-21; settings: for TR-FRET dose-response, normalized signal (SI Fig 11): individual replicates; for TR-FRET dose-response, normalized signal (SI Fig 11) / normalized TR-FRET ligand displacement signal, dose-response replicates (SI Fig 6): listed as NCP26 (3)
HsProRS, sequence (P07814 996-1512): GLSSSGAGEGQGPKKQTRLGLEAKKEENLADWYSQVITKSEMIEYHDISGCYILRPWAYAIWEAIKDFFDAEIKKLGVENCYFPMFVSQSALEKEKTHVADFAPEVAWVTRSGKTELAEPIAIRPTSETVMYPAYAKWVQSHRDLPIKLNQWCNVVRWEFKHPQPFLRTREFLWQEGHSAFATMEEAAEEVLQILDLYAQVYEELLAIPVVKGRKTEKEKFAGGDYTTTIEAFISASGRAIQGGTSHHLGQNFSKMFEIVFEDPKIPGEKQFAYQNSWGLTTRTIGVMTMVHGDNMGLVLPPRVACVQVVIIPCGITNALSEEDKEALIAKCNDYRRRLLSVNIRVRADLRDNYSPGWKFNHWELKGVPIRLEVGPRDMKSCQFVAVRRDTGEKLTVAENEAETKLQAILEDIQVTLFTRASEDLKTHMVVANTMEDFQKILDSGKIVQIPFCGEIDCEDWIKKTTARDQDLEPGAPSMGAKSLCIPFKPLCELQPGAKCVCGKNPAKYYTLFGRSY

O=C(NC1Cc2ccccc2C1)c1nccnc1NC(=O)N1CCCCC1 [NCP26]
parasite growth, dose-response point ([1]; S3 - Clone A8, Log[NCP26] (M) -7.107): 100 and 103 and 99
parasite growth, dose-response point ([1]; S3 - Clone A8, Log[NCP26] (M) -7.408): 104 (2×) and 98
parasite growth, dose-response point ([1]; S3 - Clone B2, Log[NCP26] (M) -6.505): 76 and 92 and 86
parasite growth, dose-response point ([1]; S3 - Clone B2, Log[NCP26] (M) -6.806): 88 and 90 and 99
parasite growth, dose-response point ([1]; S3 - Clone B2, Log[NCP26] (M) -7.107): 113 and 109 and 107
parasite growth, dose-response point ([1]; S3 - Clone B2, Log[NCP26] (M) -7.408): 108 and 109
parasite growth, dose-response point ([1]; S3 - Clone B3, Log[NCP26] (M) -6.505): 92 and 95
parasite growth, dose-response point ([1]; S3 - Clone B3, Log[NCP26] (M) -6.806): 92 and 96 and 98
parasite growth, dose-response point ([1]; S3 - Clone B3, Log[NCP26] (M) -7.107): 99 and 94
parasite growth, dose-response point ([1]; S3 - Clone B3, Log[NCP26] (M) -7.408): 105 and 101 and 104
parasite growth, dose-response point ([1]; S3 - Clone B7, Log[NCP26] (M) -6.505): 101 and 95 and 100
parasite growth, dose-response point ([1]; S3 - Clone B7, Log[NCP26] (M) -6.806): 99 and 96 and 101
parasite growth, dose-response point ([1]; S3 - Clone B7, Log[NCP26] (M) -7.107): 98 and 94 and 99
parasite growth, dose-response point ([1]; S3 - Clone B7, Log[NCP26] (M) -7.408): 105 and 98
binding mode with respect to substrates (ATP, proline) [2]: proline-uncompetitive
fold increased affinity in the presence of proline [2]: 52 fold
dose-response signal (normalized), SI Fig 8 ([2]; Log[inhibitor] (M) -6.301): -4.45E-02 and 1.59E-01 and 5.71E-02 and 4.55E-02 and 8.14E-02 and 4.48E-02
dose-response signal (normalized), SI Fig 8 ([2]; Log[inhibitor] (M) -6.602): 1.17E-01 and 1.10E-01 and 1.62E-01 and 1.06E-01 and 1.14E-01 and 3.45E-02
dose-response signal (normalized), SI Fig 8 ([2]; Log[inhibitor] (M) -6.904): -7.84E-03 and 4.23E-02 and 1.85E-01 and 6.33E-02 and -1.22E-02 and 1.04E-01
dose-response signal (normalized), SI Fig 8 ([2]; Log[inhibitor] (M) -7.205): 1.30E-01 and 1.69E-01 and 1.26E-02 and 6.32E-02 and 1.43E-01 and 5.72E-02
dose-response signal (normalized), SI Fig 8 ([2]; Log[inhibitor] (M) -7.506): 2.32E-01 and 1.89E-01 and 1.64E-01 and 2.04E-01 and 7.73E-02 and 1.02E-01
dose-response signal (normalized), SI Fig 8 ([2]; Log[inhibitor] (M) -7.796): 3.08E-01 and 3.64E-01 and 4.11E-01 and 4.02E-01 and 3.25E-01 and 3.10E-01
dose-response signal (normalized), SI Fig 8 ([2]; Log[inhibitor] (M) -8.097): 5.23E-01 and 5.87E-01 and 9.12E-01 and 7.05E-01 and 5.54E-01 and 7.03E-01
dose-response signal (normalized), SI Fig 8 ([2]; Log[inhibitor] (M) -8.407): 7.84E-01 and 7.32E-01 and 7.98E-01 and 9.93E-01 and 8.87E-01 and 8.26E-01
dose-response signal (normalized), SI Fig 8 ([2]; Log[inhibitor] (M) -8.708): 9.57E-01 and 1.08E+00 and 9.98E-01 and 8.58E-01 and 8.40E-01 and 9.70E-01
dose-response signal (normalized), SI Fig 8 ([2]; Log[inhibitor] (M) -9.018): 9.48E-01 and 9.31E-01 and 1.13E+00 and 1.15E+00 and 1.02E+00 and 9.66E-01
dose-response signal (normalized), SI Fig 8 ([2]; Log[inhibitor] (M) -9.319): 9.22E-01 and 1.00E+00 and 1.07E+00 and 1.03E+00 and 1.09E+00 and 9.57E-01
dose-response signal (normalized), SI Fig 8 ([2]; Log[inhibitor] (M) -9.620): 1.10E+00 and 1.04E+00 (2×) and 9.95E-01 and 1.13E+00 and 9.21E-01
dose-response signal (normalized), SI Fig 8 ([2]; Log[inhibitor] (M) -9.921): 9.45E-01 and 1.02E+00 and 1.05E+00 and 9.10E-01 and 9.27E-01 and 9.41E-01
dose-response signal (normalized), SI Fig 8 ([2]; Log[inhibitor] (M) -10.097): 1.10E+00 and 1.01E+00 and 1.17E+00 and 9.78E-01 and 8.32E-01 and 1.04E+00
dose-response signal (normalized), SI Fig 8 ([2]; Log[inhibitor] (M) -10.585): 1.14E+00 and 1.18E+00 and 8.42E-01 and 8.75E-01 and 9.70E-01 and 1.02E+00
PfcProRS -- best Kd ([2]; SI Fig 16a, values on -log scale): 8.599
resistance to NCP26 after selection ([3]; >50 generations (100 days), 2 out of 3 selections): 20-to-80 fold
generations until resistance arises ([3]; intermittent drug pressure): > 50 generations
fold increased affinity in the presence of proline ([4]; 100 μM proline vs no substrates): > 750 fold
Kd ([4]; HsProRS (KD [nM]) + ATP, 500 μM ATP, 250 nM MAT379): 678 nM
Kd ([4]; HsProRS (KD [nM]) −, absence of substrates, 250 nM MAT379): 271 nM
Kd ([4]; HsProRS - best Kd, SI Fig 16a, values on -log scale): 0.351 nM
TR-FRET dose-response, normalized signal (SI Fig 11) ([4]; Log[inhibitor] (M) -5.000): 3.90E-02 and 5.46E-02 and 7.26E-02
normalized TR-FRET ligand displacement signal, dose-response replicates (SI Fig 6) ([4]; Log[inhibitor] (M) -5.000): -7.74E-03 and 7.74E-03
TR-FRET dose-response, normalized signal (SI Fig 11) ([4]; Log[inhibitor] (M) -5.301): 8.66E-02 (2×) and 6.05E-02
normalized TR-FRET ligand displacement signal, dose-response replicates (SI Fig 6) ([4]; Log[inhibitor] (M) -5.301): 1.56E-02 and 1.09E-02
TR-FRET dose-response, normalized signal (SI Fig 11) ([4]; Log[inhibitor] (M) -5.601): 1.54E-01 and 1.44E-01 and 1.56E-01
